For 19 molecules, EC50 results are on record in ChEMBL document CHEMBL3044932, “In vitro cytotoxicity evaluation of diversely substituted N-aryl-2-oxindoles” (2013).

Holding throughout (assay type): functional
The test system of one test is HuTu80. Kind of test: Cytotoxicity against Homo sapiens (human) HuTu 80 cells after 72 hr by MTT assay. The following applies: HuTu80, 72 h, read-out: ED50 (the source's name). Background: Formazan colour is commonly taken as a measure of viable cells.
The next test relates to B16-F10. Kind of test: Cytotoxicity against Homo sapiens (human) B16F10 cells after 72 hr by MTT assay. The following applies: Mus musculus, B16-F10, 72 h; read-out: ED50 (the source's name).
Another test relates to KB. Kind of test: Cytotoxicity against Homo sapiens (human) KB cells after 72 hr by MTT assay. The following applies: read-out: ED50 (the source's name).
The subject of a further test is MIA PaCa-2. The experiment in a line: Cytotoxicity against Homo sapiens (human) MIAPaCa2 cells after 72 hr by MTT assay. The following applies: MIA PaCa-2, 72 h, read-out: ED50 (the source's name).
For another test, the system named is MCF7. The experiment in a line: Cytotoxicity against Homo sapiens (human) MCF7 cells after 72 hr by MTT assay. The following applies: MCF7, 72 h, read-out: ED50 (the source's name).
For the next test, the system named is L132. Kind of test: Cytotoxicity against Homo sapiens (human) L-132 cells after 72 hr by MTT assay. The following applies: L132, 72 h, read-out: ED50 (the source's name).
Another test deals with MOLT-4. The experiment in a line: Cytotoxicity against Homo sapiens (human) MOLT4 cells after 72 hr by MTT assay. The following applies: MOLT-4, 72 h, read-out: ED50 (the source's name).

In brackets after ≈: the same amount, converted by molar mass.

On to `O=C1/C(=C\c2ccc(F)cc2)c2ccccc2N1c1c(Cl)cccc1Cl`, for which the EC50 amounted to 8 µg/mL (≈ 20.8 µM) in the test with HuTu80; 38 µg/mL (≈ 98.9 µM) with B16-F10; 5 µg/mL (≈ 13 µM) in the test on KB; 5 µg/mL (≈ 13 µM) in the test with MIA PaCa-2; 9 µg/mL (≈ 23.4 µM) with MCF7; 13 µg/mL (≈ 33.8 µM) in the test on L132.
Take `O=C1/C(=C\c2ccc(O)cc2)c2ccccc2N1c1c(Cl)cccc1Cl`: the EC50 in the test with HuTu80 was determined as 25 µg/mL (≈ 65.4 µM); in the test with B16-F10, 33 µg/mL (≈ 86.3 µM); with KB, 2 µg/mL (≈ 5.23 µM); with MIA PaCa-2 it was 2 µg/mL (≈ 5.23 µM); in the test on MCF7, 20 µg/mL (≈ 52.3 µM); in the test on L132, 30 µg/mL (≈ 78.5 µM).
Turning to `O=C1Cc2ccccc2N1c1c(Cl)cccc1Cl`, the EC50 with HuTu80 was greater than 100 µg/mL; in the test on B16-F10 it was greater than 100 µg/mL; in the test with KB, 100 µg/mL (≈ 360 µM); in the test on MIA PaCa-2, greater than 100 µg/mL; in the test with MCF7, greater than 100 µg/mL; in the test on L132, greater than 100 µg/mL.
Take `O=C1/C(=C\c2ccccc2Cl)c2ccccc2N1c1c(Cl)cccc1Cl`: the EC50 in the test on MOLT-4 was 7 µg/mL (≈ 17.5 µM); in the test with HuTu80 it was greater than 100 µg/mL; with B16-F10, 39 µg/mL (≈ 97.3 µM); in the test on KB, 5 µg/mL (≈ 12.5 µM); with MIA PaCa-2 it was greater than 100 µg/mL; with MCF7, 9 µg/mL (≈ 22.5 µM). In addition, the EC50 with L132 was greater than 100 µg/mL.
On to `O=C1/C(=C\c2c(Cl)cccc2Cl)c2ccccc2N1c1c(Cl)cccc1Cl`, for which the EC50 is 100 µg/mL (≈ 230 µM) in the test with HuTu80; greater than 100 µg/mL in the test on B16-F10; 50 µg/mL (≈ 115 µM) in the test with KB; greater than 100 µg/mL in the test with MIA PaCa-2; greater than 100 µg/mL in the test with MCF7; greater than 100 µg/mL in the test with L132.
With `O=C1/C(=C\c2cccc(Cl)c2)c2ccccc2N1c1c(Cl)cccc1Cl`, the EC50 in the test on MOLT-4 came out at 6 µg/mL (≈ 15 µM); with HuTu80, 7 µg/mL (≈ 17.5 µM); with B16-F10 it was 8 µg/mL (≈ 20 µM); with KB, 2 µg/mL (≈ 4.99 µM); in the test on MIA PaCa-2, 5 µg/mL (≈ 12.5 µM); in the test on L132, 16 µg/mL (≈ 39.9 µM).
For `O=C1/C(=C\c2ccc(Cl)cc2)c2ccccc2N1c1c(Cl)cccc1Cl`, the EC50 with HuTu80 was 6 µg/mL (≈ 15 µM); with B16-F10, greater than 100 µg/mL; with KB it was 2 µg/mL (≈ 4.99 µM); in the test with MIA PaCa-2, 5 µg/mL (≈ 12.5 µM); in the test on MCF7, 5 µg/mL (≈ 12.5 µM); with L132 it was 9 µg/mL (≈ 22.5 µM).
With `O=C1/C(=C\c2cc3ccccc3nc2Cl)c2ccccc2N1c1c(Cl)cccc1Cl`, the EC50 was 10 µg/mL (≈ 22.1 µM) with KB, 5 µg/mL (≈ 11.1 µM) in the test with MIA PaCa-2 and greater than 100 µg/mL in the test with MCF7.
As to `CN(C)c1ccc(/C=C2\C(=O)N(c3c(Cl)cccc3Cl)c3ccccc32)cc1`, the EC50 was less than 1 µg/mL in the test with HuTu80; greater than 100 µg/mL in the test on B16-F10; 15 µg/mL (≈ 36.6 µM) in the test with KB; greater than 100 µg/mL in the test with MIA PaCa-2; greater than 100 µg/mL in the test with MCF7; greater than 100 µg/mL in the test with L132.
Consider `O=C1/C(=C\c2cccc(Br)c2)c2ccccc2N1c1c(Cl)cccc1Cl`, for which the EC50 was determined as 7 µg/mL (≈ 15.7 µM) in the test on MOLT-4; 7 µg/mL (≈ 15.7 µM) in the test on HuTu80; 8 µg/mL (≈ 18 µM) in the test with B16-F10; 2 µg/mL (≈ 4.49 µM) with KB; 5 µg/mL (≈ 11.2 µM) with MIA PaCa-2; 5 µg/mL (≈ 11.2 µM) in the test on MCF7. Also, the EC50 in the test with L132 was 19 µg/mL (≈ 42.7 µM).
On to `O=C1/C(=C\c2cccc3ccccc23)c2ccccc2N1c1c(Cl)cccc1Cl`, for which the EC50 with HuTu80 was 10 µg/mL (≈ 24 µM); with B16-F10, greater than 100 µg/mL; in the test with KB, greater than 100 µg/mL; in the test on MIA PaCa-2, greater than 100 µg/mL; in the test on MCF7 it was greater than 100 µg/mL; in the test on L132, greater than 100 µg/mL.
For the molecule `Cc1ccc2nc(Cl)c(/C=C3\C(=O)N(c4c(Cl)cccc4Cl)c4ccccc43)cc2c1C`, the EC50 with HuTu80 is less than 1 µg/mL; with B16-F10 it was greater than 100 µg/mL; in the test on KB it was 10 µg/mL (≈ 20.8 µM); in the test with MCF7, greater than 100 µg/mL; with L132 it was 98 µg/mL (≈ 204 µM).
In the case of `COc1ccc(/C=C2\C(=O)N(c3c(Cl)cccc3Cl)c3ccccc32)cc1OC`, the EC50 with HuTu80 is less than 1 µg/mL; in the test with B16-F10, greater than 100 µg/mL; in the test on KB, 10 µg/mL (≈ 23.5 µM); in the test on MIA PaCa-2 it was 5 µg/mL (≈ 11.7 µM); in the test on MCF7, 10 µg/mL (≈ 23.5 µM); in the test on L132 it was greater than 100 µg/mL.
With `Cc1ccc2nc(Cl)c(/C=C3\C(=O)N(c4c(Cl)cccc4Cl)c4ccccc43)cc2c1`, the figures for the EC50 in the test on KB and in the test on MCF7 were 100 µg/mL (≈ 215 µM) and greater than 100 µg/mL, respectively.
For the molecule `O=C1/C(=C\c2ccccc2[N+](=O)[O-])c2ccccc2N1c1c(Cl)cccc1Cl`, the EC50 with MOLT-4 is 6 µg/mL (≈ 14.6 µM); in the test with HuTu80, 10 µg/mL (≈ 24.3 µM); in the test on B16-F10, greater than 100 µg/mL; in the test with KB, 1 µg/mL (≈ 2.43 µM); with MIA PaCa-2, 5 µg/mL (≈ 12.2 µM); in the test with L132, 10 µg/mL (≈ 24.3 µM).
Regarding `O=C1/C(=C\c2ccco2)c2ccccc2N1c1c(Cl)cccc1Cl`, the EC50 with HuTu80 was 18 µg/mL (≈ 50.5 µM); with B16-F10, greater than 100 µg/mL; in the test with KB, 5 µg/mL (≈ 14 µM); in the test with MIA PaCa-2, 10 µg/mL (≈ 28.1 µM); in the test with MCF7, greater than 100 µg/mL; in the test on L132, greater than 100 µg/mL.
In the case of `COc1ccc(/C=C2\C(=O)N(c3c(Cl)cccc3Cl)c3ccccc32)cc1`, the EC50 in the test on HuTu80, with B16-F10, in the test with KB, in the test with MIA PaCa-2, in the test on MCF7 and with L132 was greater than 100 µg/mL in each case.
As to `O=C1/C(=C\c2cccc(Oc3ccccc3)c2)c2ccccc2N1c1c(Cl)cccc1Cl`, the EC50 in the test on MOLT-4 is 6 µg/mL (≈ 13.1 µM); in the test with HuTu80 it was 10 µg/mL (≈ 21.8 µM); in the test with B16-F10, greater than 100 µg/mL; with KB, 5 µg/mL (≈ 10.9 µM); in the test with MIA PaCa-2 it was greater than 100 µg/mL; in the test on MCF7 it was 100 µg/mL (≈ 218 µM). Moreover, the EC50 in the test on L132 is 24 µg/mL (≈ 52.4 µM).
As for `O=C1/C(=C\c2ccccc2)c2ccccc2N1c1c(Cl)cccc1Cl`, the EC50 is 7 µg/mL (≈ 19.1 µM) in the test with MOLT-4; 8 µg/mL (≈ 21.8 µM) with HuTu80; 9 µg/mL (≈ 24.6 µM) with B16-F10; 10 µg/mL (≈ 27.3 µM) in the test on KB; greater than 100 µg/mL with MIA PaCa-2; 10 µg/mL (≈ 27.3 µM) in the test on MCF7. Further, the EC50 in the test with L132 is greater than 100 µg/mL.
